Here are results for four compounds from patent US10550153B2, “Peptide or pharmaceutically acceptable salt thereof, or prodrug thereof” (Tokyo University of Pharmacy & Life Sciences, priority 2017, dated 2020).

Entries after “also recorded” stand apart in the source; their conditions may differ. Where a SMILES comes first, the peptide text is derived from it. [ ]: non-standard residue; d: D form. The star is where a group is joined. Propanoyl(3-cHex) = O=C(CCC1CCCCC1)*; Orn = NCCC[C@H](N)C(=O)O; Dab = NCC[C@H](N)C(=O)O; Dap = NC[C@H](N)C(=O)O

Data set [1] in a line: Stability in phosphate buffer solution (HPLC recovery rate). It is filed as physicochemical. As to the method: Peptide solution was prepared (1 mL) by using a 100 mM phosphate buffer solution (pH 7.4) so as to have the final concentration of 1 mM, and then the peptide solution was incubated for arbitrary time period (1 to 72 hours) in a water bath at 37° C. After the arbitrary time period, sampling was carried out and 20 μL of injection into high performance liquid chromatography (HPLC) (column: COSMOSIL (registered trademark) Cholester Packed Column 4.6 mmI.D.×150 mm; gradient: % B 25-35, 30 min [A: H2O-0.1% (v/v) TFA; B: MeCN]; flow rate: 1.0 mL/min; measurement wavelength: 220 nm) was made. Then, by taking the obtained area value as an indicator, the stability was analyzed from the recovery rate (%) of the compound.

For data set [2], the target named is T1, hNMUR2 (Homo sapiens, UniProt Q9GZQ4).
T1 construct: expressed in transfected cells
As to the kind of experiment: In vitro agonist activity for human neuromedin U receptor (intracellular calcium, Fluo-4, CHO cells stably expressing the receptor). It counts as cell-based. The note with it: at a concentration of 100 nM; versus hNMUR1; selective = relative agonist activity for NMUR1 18% or less at 1000 nM and for NMUR2 48% or more at 100 nM. As to the method: For CPN-219 which has been synthesized in Synthesis Example 1, evaluation of the agonist activity for type 1 and type 2 human neuromedin U receptor (hNMUR1 and hNMUR2) was carried out according to the following method.
CHO cells derived from Chinese hamster ovary which stably express hNMUR1 or hNMUR2 were cultured in a 5% (v/v) CO2 incubator at 37° C. by using MEM alpha (GIBCO (registered trademark), Thermo Fisher Scientific Inc.) medium containing 1 mg/mL G418 (NACALAI TESQUE, INC.), 10% (v/v) fetal bovine serum (FCS) and nucleosides (adenosine 10 mg/L, cytidine 10 mg/L, guanosine 10 mg/L, uridine 10 mg/L, 2′-deoxyadenosine 10 mg/L, 2′-deoxycytidine hydrochloride 11 mg/L, 2′-deoxyguanosine 10 mg/L, thymidine 10 mg/L).
The CHO cells were sown on a 96 well black-walled plate with clear bottom (Iwaki: AGC TECHNO GLASS CO., LTD.) at 2.0×10^4 cells per well (150 μL DMEM+10% (v/v) FBS), and then cultured for 18 hours.
After the culture, 100 μL of Fluo-4 AM (Promega Corporation) solution as a fluorescent indicator of intracellular calcium concentration was added to each well, in which the solution has been prepared such that it has the final concentration of 4 μM in assay buffer (HBSS, 10 mM HEPES, 2.5 mM probenecid, 1% (v/v) FCS: pH 7.4). After culture for 40 minutes at 37° C., the cells were washed 4 times with the assay buffer and set in a fluorometric imaging plate reader (Molecular Devices, LLC.).
The peptide as a test sample was dissolved by using dimethyl sulfoxide (DMSO) such that the stock solution is present at 20 mM, and then it was stored at 4° C. One hour before addition to the cells, by using an assay buffer added with 0.05% (v/v) bovine serum albumin (BSA) and […] Triton (registered trademark) X-100, preparation to arbitrary final concentration was made (10^−12 to 10^−6 M), and the fluorescence based on the activity of recruiting intracellular calcium by the peptide (i.e., agonist activity) was measured by using a fluorometric imaging plate reader.
For orientation: A change in cytosolic calcium serves as a functional read-out for many receptors and channels.

Data set [3] can be described thus: Stability in rat plasma (LC/MS). The conditions noted are these: 37° C. It is filed as in vitro ADME. Here is the method:
Peptide solution was added to rat plasma such that the final peptide concentration is 50 μg/mL, and then incubated for arbitrary time period (0.5 to 6 hours) at 37° C. After the arbitrary time period, sampling was carried out and high performance liquid chromatography mass spectrometry (LC/MS) was performed under the following conditions followed by stability analysis.
LC/MS System: LC-MS2020 (SHIMADZU CORPORATION)
Column: TSKgel ODS-100V (Tosoh Corporation, 3.0 μm, 2.0 mm×75 mm)
Mobile layer: 0.1% trifluoroacetic acid (pH 2.5):acetonitrile=2:1
Column temperature: 40° C.
Detection: ESI^+, m/z=425.

Data set [4] deals with ddy male mouse. Description: Suppression of increase in prolactin concentration in blood under restraint stress. It is filed as in vivo. The note with it: 200 μg/5 μL intranasal, restraint stress 20 minutes, ELISA. Here is the method:
Peptide solution (200 μg/5 μL) or physiological saline (5 μL) was administered to the nasal cavity of a ddY male mouse. After 20 minutes, restraint stress (i.e., addition to the inside of a tube) was applied for 20 minutes and blood was taken by cutting off the animal head. Then, the PLT concentration in plasma was analyzed by using Mouse Prolactin DuoSet ELISA (R&D systems).
Furthermore, for a ddY male mouse which has not been administered with the peptide solution (200 μg/5 μL) or physiological saline (5 μL), and also not applied with any stress, the PLT concentration in plasma was analyzed in the same manner as above.
(In general: In an ELISA, binding on a coated surface is turned into a signal by an enzyme label.)

Data set [5] concerns ddy male mouse. As to the kind of experiment: Fluctuation in corticosterone concentration in blood. The conditions noted are these: 200 μg/5 μL intranasal, after 5 minutes. It counts as in vivo. Here is the method: Peptide solution (200 μg/5 μL) or physiological saline (5 μL) was administered, either intranasally or peritoneally, to a ddY male mouse. After 5 minutes, blood was taken from the caval vein, and corticosterone concentration in plasma was analyzed according to the LC/MS analysis. Furthermore, as a control, without administering the peptide solution (200 μg/5 μL) or physiological saline (5 μL), blood was taken […] from the caval vein, and corticosterone concentration in plasma was analyzed according to the LC/MS analysis. The LC/MS analysis was carried out under the same conditions as above.

For data set [6], the system named is ddy male mouse. As to the kind of experiment: Suppression of body weight gain and food intake upon intranasal administration to a mouse. It counts as in vivo. The conditions noted are these: 64 μg or 213 μg once intranasally, Day 1 to 5, versus physiological saline. As to the method:
CPN-219, each dissolved at 64 μg or 213 μg in physiological saline (5 μL), was administered once to the nasal cavity of a ddy male mouse under anesthetization. As a control, physiological saline (5 μL) was administered once to the nasal cavity. For each administration group, the body weight of a mouse and food intake amount were measured immediately before the administration, each of Day 1 to 5 from immediately after the administration.
The body weight of a mouse was 29.0±0.83 g for the group with intranasal administration of 64 μg, or 27.7±1.29 g for the group with intranasal administration of 213 μg.

The nature of data set [7]: Brain delivery upon intranasal administration to a mouse. It is filed as in vivo. The conditions noted are these: ddY male mouse, 200 μg/5 μL intranasal, after 5 minutes; compared to CPN-116. Here is the method: Peptide solution (200 μg/5 μL) was administered to the nasal cavity of a ddY male mouse. After 5 minutes, the animal was sacrificed and the brain tissues were collected. According to the LC/MS analysis, concentration of the peptide in plasma and brain was analyzed, and the ratio of concentration in brain compared to concentration in plasma was analyzed. The LC/MS analysis was carried out under the same conditions as above.

The target of data set [8] is T2, mNMUR2 (Mus musculus, UniProt Q8BZ39).
T2 construct: expressed in transfected cells; host or cells: HEK293 cells (transient transfection with FuGENE6)
Description: In vitro agonist activity for mouse neuromedin U receptor (intracellular calcium, Fluo-4, transfected HEK293 cells). It is filed as cell-based. The note with it: at a concentration of 100 nM, versus mNMUR1. As to the method: For CPN-219 which has been synthesized in Synthesis Example 1, evaluation of the agonist activity for type 1 and type 2 mouse neuromedin U receptor (mNMUR1 and mNMUR2) was carried out according to the following method.
HEK293 cells derived from human embryonic kidney were cultured in a 5% (v/v) CO2 incubator at 37° C. by using DMEM-high glucose (GIBCO (registered trademark), Thermo Fisher Scientific Inc.) medium containing 10% (v/v) FCS.
Cells were sown on a 100 mm dish at 5.0×10^5 cells (10 mL DMEM+10% FBS), and then cultured for 18 hours. After the culture, by using FuGENE6 (Promega Corporation), the cultured cells were transfected with an expression plasmid which encodes mNMUR1 or mNMUR2 (2.5 μg). The cells were cultured for 18 hours. […]
On the next day, 100 μL of Fluo-4 AM (Promega Corporation) solution as a fluorescent indicator of intracellular calcium concentration was added to each well, in which the solution has been prepared such that it has the final concentration of 4 μM in assay buffer (HBSS, 10 mM HEPES, 2.5 mM probenecid, 1% FCS: pH 7.4). After culture for 40 minutes at 37° C., the cells were washed 4 times with the assay buffer and set in a fluorometric imaging plate reader (Molecular Devices, LLC.). […]

A short description of data set [9]: Pharmacokinetics of peptides in rat after administration via jugular vein. The note with it: Wistar rat, 500 μg/200 μL via jugular vein, 1 to 240 minutes; compared to CPN-116. It counts as in vivo. As to the method:
The peptide solution (500 μg/200 μL) was administered via jugular vein of a Wistar rat. After arbitrary time period (1 to 240 minutes), blood was taken from the femoral artery which has been subjected to cannulation in advance. According to the LC/MS analysis, pharmacokinetics of the peptide was analyzed. The LC/MS analysis was carried out under the same conditions as above.

[10] abbreviates: 100 mM phosphate buffer solution pH 7.4, 37° C., after 48 hours.
The mark [11] stands for this setting: 2 hours, read-out: recovery rate in rat plasma after 2 hours.

T1 sequence (Q9GZQ4 whole entry): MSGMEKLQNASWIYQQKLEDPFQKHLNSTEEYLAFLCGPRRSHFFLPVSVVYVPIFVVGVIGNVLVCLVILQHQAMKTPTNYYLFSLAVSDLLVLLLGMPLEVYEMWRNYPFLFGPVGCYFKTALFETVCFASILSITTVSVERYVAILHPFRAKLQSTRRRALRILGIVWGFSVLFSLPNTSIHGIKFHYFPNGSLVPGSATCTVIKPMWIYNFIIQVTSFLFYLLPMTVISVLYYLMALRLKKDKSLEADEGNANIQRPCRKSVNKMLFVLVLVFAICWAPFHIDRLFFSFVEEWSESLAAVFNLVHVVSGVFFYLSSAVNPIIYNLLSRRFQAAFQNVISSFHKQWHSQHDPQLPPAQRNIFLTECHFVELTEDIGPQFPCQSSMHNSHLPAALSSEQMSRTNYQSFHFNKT
T2 sequence (Q8BZ39 whole entry): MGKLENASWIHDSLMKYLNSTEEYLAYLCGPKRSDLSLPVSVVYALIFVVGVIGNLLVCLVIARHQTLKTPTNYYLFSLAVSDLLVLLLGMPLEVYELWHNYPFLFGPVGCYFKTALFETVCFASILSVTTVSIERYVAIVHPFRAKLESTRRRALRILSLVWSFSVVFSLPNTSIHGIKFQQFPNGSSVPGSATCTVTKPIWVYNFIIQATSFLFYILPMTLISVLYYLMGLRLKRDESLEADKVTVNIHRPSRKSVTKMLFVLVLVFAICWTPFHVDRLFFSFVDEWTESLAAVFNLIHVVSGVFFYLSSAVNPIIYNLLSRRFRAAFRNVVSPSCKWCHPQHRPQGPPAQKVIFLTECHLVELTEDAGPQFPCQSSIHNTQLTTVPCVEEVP

For “3-Cyclohexylpropionyl-Leu-Leu-Dpr-Pro-Arg-Asn-NH2 ({Propanoyl(3-cHex)}-LL[Dap]PRN-NH2) [CPN-220]”, the “converted to CPN-116 in phosphate buffer solution” value in data set [1] (setting [10]) is not below 25%. In addition, the “hNMUR2 selective agonist activity” value in [2] is “did not exhibit the hNMUR2 selective agonist activity; also recorded: does not show the hNMUR2 selective agonist activity”.

With `CC(C)C[C@H](NC(=O)CCC1CCCCC1)C(=O)N[C@@H](CC(C)C)C(=O)N[C@@H](CN)C(=O)N1CCC[C@H]1C(=O)N[C@@H](CCCNC(=N)N)C(=O)N[C@@H](CC(N)=O)C(N)=O` [CPN-116, 3-Cyclohexylpropionyl-Leu-Leu-Dpr-Pro-Arg-Asn-NH2] ({Propanoyl(3-cHex)}-LL[Dap]PRN-NH2), in data set [1] (setting [10]), the “converted to CPN-220 in phosphate buffer solution” value is recorded as not below 70%. For the same compound, in data set [1] (100 mM phosphate buffer solution, conclusion from Test Examples 11 and 12), the “chemical stability (in words)” value is on record as “chemically unstable”. In addition, the recovery at 2 h, 50 μg/mL in data set [3] (setting [11]) is not above 3%.

For “3-Cyclohexylpropionyl-Leu-Leu-Orn-Pro-Arg-Asn-NH2 ({Propanoyl(3-cHex)}-LL[Orn]PRN-NH2; SMILES CC(C)C[C@H](NC(=O)CCC1CCCCC1)C(=O)N[C@@H](CC(C)C)C(=O)N[C@@H](CCCN)C(=O)N1CCC[C@H]1C(=O)N[C@@H](CCCNC(=N)N)C(=O)N[C@@H](CC(N)=O)C(N)=O) [CPN-221]”, the “hNMUR2 selective agonist activity” value in data set [2] is “exhibited the hNMUR2 selective agonist activity”.

As to `CC(C)C[C@H](NC(=O)CCC1CCCCC1)C(=O)N[C@@H](CC(C)C)C(=O)N[C@@H](CCN)C(=O)N1CCC[C@H]1C(=O)N[C@@H](CCCNC(=N)N)C(=O)N[C@@H](CC(N)=O)C(N)=O` [CPN-219, 3-Cyclohexylpropionyl-Leu-Leu-Dbu-Pro-Arg-Asn-NH2] ({Propanoyl(3-cHex)}-LL[Dab]PRN-NH2), the “prolactin secretion (PLT concentration in plasma)” value in [4] is given as “suppresses the prolactin secretion”. Moreover, the “corticosterone concentration in blood” value in data set [5] is reported as “significantly increased the corticosterone concentration in blood”. Also, the recovery at 2 hours, 50 μg/mL in [3] (setting [11]) was not below 80%. Besides, the recovery at 6 hours, 50 μg/mL in data set [3] (6 hours, read-out: recovery rate in rat plasma after 6 hours) was not below 60%. For the same compound, in data set [6], the “body weight gain of a mouse” value is recorded as “significantly suppressed the body weight gain” and the “food intake of a mouse” value was “significantly suppressed”. Further, the “brain delivery (ratio of concentration in brain to concentration in plasma; transfer to olfactory bulb)” value in [7] is given as “more favorable transfer to an olfactory bulb”. In addition, in data set [2], the “hNMUR2 selective agonist activity” value is recorded as “exhibited the NMUR2 selective agonist activity”. In data set [8], the “mNMUR2 selective agonist activity” value was “exhibited the mNMUR2 selective agonist activity”. Further, the “pharmacokinetics in rat blood” value in [9] is on record as “more favorable pharmacokinetics in rat blood”.
